EC50 data for 31 compounds are collected here from patent US20230250060A1 (IFM Due, Inc., priority 2022, published 2023).

pEC50: −log10 of the molar value.

T1 sequence (Q86WV6 whole entry R71H/G230A/H232R/R293Q): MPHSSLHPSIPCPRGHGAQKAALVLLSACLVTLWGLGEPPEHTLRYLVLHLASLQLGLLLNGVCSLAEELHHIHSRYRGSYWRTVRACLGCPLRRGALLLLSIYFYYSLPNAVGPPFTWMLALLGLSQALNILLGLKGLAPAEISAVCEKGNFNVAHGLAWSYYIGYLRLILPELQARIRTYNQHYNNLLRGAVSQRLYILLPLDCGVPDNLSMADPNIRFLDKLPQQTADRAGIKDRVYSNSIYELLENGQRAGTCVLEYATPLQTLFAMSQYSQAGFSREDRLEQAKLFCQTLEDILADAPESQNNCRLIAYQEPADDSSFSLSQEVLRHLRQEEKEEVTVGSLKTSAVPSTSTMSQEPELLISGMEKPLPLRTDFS

The experiment addresses T1, STING (Homo sapiens, UniProt Q86WV6, G230A/H232R/R293Q/R71H).
T1 construct: host or cells: THP1-Dual KO-IFNAR2 cells
Briefly: STING reporter assay (luciferase) in THP1-Dual KO-IFNAR2 cells stimulated with 2′3′cGAMP. The experiment is classed as cell-based. Conditions: 2′3′cGAMP 15 μM final, 24 h, luciferase reporter activity, read-out: Pharmaron, THP1_IFNAR2 STING 24 h Luci Normalized: GeoMean EC50. As to the method: STING pathway activation by the compounds described herein was measured using TTIP1-Dual™ cells (KO-IFNAR2).
TTIP1-Dual™ KO-IFNAR2 Cells (obtained from invivogen) were maintained in RPMI, 10% FCS, 5 ml P/S, 2 mM L-glut, 10 mM Hepes, and 1 mM sodium pyruvate. Compounds were spotted in empty 384 well tissue culture plates (Greiner 781182) by Echo for a final concentration of 0.0017-100 μM. Cells were plated into the TC plates at 40 μL per well, 2×10E6 cells/mL. For activation with STING ligand, 2′3′cGAMP (MW 718.38, obtained from Invivogen), was prepared in Optimem media.
The following solutions were prepared for each 1×384 plate: • Solution A: 2 mL Optimem with one of the following stimuli: • […] • Solution B: 2 mL Optimem with […] Lipofectamine 2000→Incubate 5 min at RT
2 mL of solution A and 2 ml Solution B was mixed and incubated for 20 min at room temperature (RT). 20 μL of transfection solution (A+B) was added on top of the plated cells, with a final 2′3′cGAMP concentration of 15 μM. The plates were then centrifuged immediately at 340 g for 1 minute, after which they were incubated at 37° C., 5% CO2, >98% humidity for 24 h. Luciferase reporter activity was then measured. EC50 values were calculated by using standard methods known in the art.
Luciferase reporter assay: 10 μL of supernatant from the assay was transferred to white 384-plate with flat bottom and squared wells. One pouch of QUANTI-Luc™ Plus was dissolved in 25 mL of water. 100 μL of QLC Stabilizer per 25 mL of QUANTI-Luc™ Plus solution was added. 50 μL of QUANTI-Luc™ Plus/QLC solution per well was then added. Luminescence was measured on a Platereader (e.g., Spectramax I3X (Molecular Devices GF3637001)).
Luciferase reporter activity was then measured. EC50 values were calculated by using standard methods known in the art.
(Reporter assays use an easily measured gene product as a stand-in for the process of interest.)
As for `O=C(Nc1c[nH]c2ccc(OCc3ccc(C(F)(F)F)cc3)cc12)C1CC12CC2` (stereo not shown) [Compound 101, N-(5-((4-(trifluoromethyl)benzyl)oxy)-1H-indol-3-yl)spiro[2.2]pentane-1-carboxamide], the pEC50 (usually the EC50 on a negative log10 scale, so that one unit is a factor of ten) is 6.00 to 6.70.

In the case of `O=C(CC1CC1)Nc1c[nH]c2ccc(O[C@H]3C[C@@H](c4ccc(C(F)(F)F)cc4)C3)cc12` [Compound 102, 2-cyclopropyl-N-(5-((1s,3s)-3-(4-(trifluoromethyl)phenyl)cyclobutoxy)-1H-indol-3-yl)acetamide], the pEC50 was 6.70 to 7.40.

In the case of `Cn1nccc1C(=O)Nc1c[nH]c2ccc(CCOc3ccc(C(F)(F)F)cc3)cc12` [Compound 103, 1-methyl-N-(5-(2-(4-(trifluoromethyl)phenoxy)ethyl)-1H-indol-3-yl)-1H-pyrazole-5-carboxamide], the pEC50 is 6.00 to 6.70.

Turning to `O=C(Nc1c[nH]c2ccc(CCOc3ccc(C(F)(F)F)cc3)cc12)C1CC12CCC2` (stereo not shown) [Compound 104, N-(5-(2-(4-(trifluoromethyl)phenoxy)ethyl)-1H-indol-3-yl)spiro[2.3]hexane-1-carboxamide], the pEC50 was 6.00 to 6.70.

In the case of `N#CC12CC(C(=O)Nc3c[nH]c4ccc(OCCc5ccc(C(F)(F)F)cc5)cc34)(C1)C2` [Compound 106, 3-cyano-N-(5-(4-(trifluoromethyl)phenethoxy)-1H-indol-3-yl)bicyclo[1.1.1]pentane-1-carboxamide], the pEC50 was 6.00 to 6.70.

In the case of `CC12CC(C(=O)Nc3c[nH]c4ccc(OCCc5ccc(C(F)(F)F)cc5)cc34)(C1)C2` [Compound 107, 3-methyl-N-(5-(4-(trifluoromethyl)phenethoxy)-1H-indol-3-yl)bicyclo[1.1.1]pentane-1-carboxamide], the pEC50 was 6.00 to 6.70.

With `O=C(Nc1c[nH]c2ccc(OCCc3ccc(C(F)(F)F)cc3)cc12)C12CC(F)(C1)C2` [Compound 108, 3-fluoro-N-(5-(4-(trifluoromethyl)phenethoxy)-1H-indol-3-yl)bicyclo[1.1.1]pentane-1-carboxamide], the pEC50 was 6.00 to 6.70.

`O=C(Nc1c[nH]c2ccc(OCCc3ccc(C(F)(F)F)cc3)cc12)c1ncccc1F` [Compound 109, 3-fluoro-N-(5-(4-(trifluoromethyl)phenethoxy)-1H-indol-3-yl)picolinamide]: the pEC50 was 6.00 to 6.70.

Turning to `O=C(Nc1c[nH]c2ccc(OCCc3ccc(C(F)(F)F)cc3)cc12)c1nccs1` [Compound 110, N-(5-(4-(trifluoromethyl)phenethoxy)-1H-indol-3-yl)thiazole-2-carboxamide], the pEC50 was 6.00 to 6.70.

As to `Cc1oncc1C(=O)Nc1c[nH]c2ccc(OCCc3ccc(C(F)(F)F)cc3)cc12` [Compound 111], the pEC50 is 4.00 to 5.30.

For `Cc1noc(C)c1C(=O)Nc1c[nH]c2ccc(OCCc3ccc(C(F)(F)F)cc3)cc12` [Compound 112, 3,5-dimethyl-N-(5-(4-(trifluoromethyl)phenethoxy)-1H-indol-3-yl)isoxazole-4-carboxamide], the pEC50 was 6.00 to 6.70.

In the case of `O=C(Nc1c[nH]c2ccc(OCCc3ccc(C(F)(F)F)cc3)cc12)c1cncs1` [Compound 113, N-(5-(4-(trifluoromethyl)phenethoxy)-1H-indol-3-yl)thiazole-5-carboxamide], the pEC50 was 6.00 to 6.70.

With `O=C(Nc1c[nH]c2ccc(OCCc3ccc(C(F)(F)F)cc3)cc12)c1cscn1` [Compound 114, N-(5-(4-(trifluoromethyl)phenethoxy)-1H-indol-3-yl)thiazole-4-carboxamide], the pEC50 is 6.00 to 6.70.

On to `O=C(Nc1c[nH]c2ccc(CCOc3ccc(C(F)(F)F)cc3)cc12)C12CC(F)(C1)C2` [Compound 116, 3-fluoro-N-(5-(2-(4-(trifluoromethyl)phenoxy)ethyl)-1H-indol-3-yl)bicyclo[1.1.1]pentane-1-carboxamide], for which the pEC50 was 6.00 to 6.70.

`O=C(Nc1c[nH]c2ccc(CCOc3ccc(C(F)(F)F)cc3)cc12)c1ncccc1F` [Compound 117, 3-fluoro-N-(5-(2-(4-(trifluoromethyl)phenoxy)ethyl)-1H-indol-3-yl)picolinamide]: the pEC50 is 6.00 to 6.70.

On to `Cc1oncc1C(=O)Nc1c[nH]c2ccc(CCOc3ccc(C(F)(F)F)cc3)cc12` [Compound 118], for which the pEC50 was 4.00 to 5.30.

For the compound `Cc1noc(C)c1C(=O)Nc1c[nH]c2ccc(CCOc3ccc(C(F)(F)F)cc3)cc12` [Compound 119, 3,5-dimethyl-N-(5-(2-(4-(trifluoromethyl)phenoxy)ethyl)-1H-indol-3-yl)isoxazole-4-carboxamide], the pEC50 was 6.00 to 6.70.

Consider `O=C(Nc1c[nH]c2ccc(CCOc3ccc(C(F)(F)F)cc3)cc12)c1cncs1` [Compound 120, N-(5-(2-(4-(trifluoromethyl)phenoxy)ethyl)-1H-indol-3-yl)thiazole-5-carboxamide], for which the pEC50 was 6.00 to 6.70.

Take `O=C(Nc1c[nH]c2ccc(OCCc3ccc(C(F)(F)F)cc3)cc12)c1ccncc1` [Compound 121, N-(5-(4-(trifluoromethyl)phenethoxy)-1H-indol-3-yl)isonicotinamide]: the pEC50 was 6.00 to 6.70.

For `O=C(Nc1c[nH]c2ccc(OCCc3ccc(C(F)(F)F)cc3)cc12)c1ccn[nH]1` [Compound 122, N-(5-(4-(trifluoromethyl)phenethoxy)-1H-indol-3-yl)-1H-pyrazole-5-carboxamide], the pEC50 was 6.70 to 7.40.

For `O=C(Nc1c[nH]c2ccc(OCCc3ccc(C(F)(F)F)cc3)cc12)c1cccnc1` [Compound 123, N-(5-(4-(trifluoromethyl)phenethoxy)-1H-indol-3-yl)nicotinamide], the pEC50 is 6.00 to 6.70.

As for `O=C(Nc1c[nH]c2ccc(OCCc3ccc(C(F)(F)F)cc3)cc12)c1ccccn1` [Compound 124, N-(5-(4-(trifluoromethyl)phenethoxy)-1H-indol-3-yl)picolinamide], the pEC50 is 5.30 to 6.00.

`O=C(CC1CC1)Nc1c[nH]c2ccc(OCCc3ccc(C(F)(F)F)cc3)cc12` [Compound 125, 2-cyclopropyl-N-(5-(4-(trifluoromethyl)phenethoxy)-1H-indol-3-yl)acetamide]: the pEC50 was 6.70 to 7.40.

`O=C(Nc1c[nH]c2ccc(OCCc3ccc(C(F)(F)F)cc3)cc12)C1CC12CC2` (stereo not shown) [Compound 126, N-(5-(4-(trifluoromethyl)phenethoxy)-1H-indol-3-yl)spiro[2.2]pentane-1-carboxamide]: the pEC50 was 6.70 to 7.40.

Turning to `Cc1nnc(C(=O)Nc2c[nH]c3ccc(O[C@H]4C[C@H](c5ccc(C(F)(F)F)cc5)C4)cc23)s1` [Compound 127, 5-methyl-N-(5-((1r,3r)-3-(4-(trifluoromethyl)phenyl)cyclobutoxy)-1H-indol-3-yl)-1,3,4-thiadiazole-2-carboxamide], the pEC50 was 6.00 to 6.70.

For the compound `Cn1cc(C(=O)Nc2c[nH]c3ccc(O[C@H]4C[C@H](c5ccc(C(F)(F)F)cc5)C4)cc23)nn1` [Compound 128, 1-methyl-N-(5-((1r,3r)-3-(4-(trifluoromethyl)phenyl)cyclobutoxy)-1H-indol-3-yl)-1H-1,2,3-triazole-4-carboxamide], the pEC50 was 6.00 to 6.70.

With `N#CC12CC(C(=O)Nc3c[nH]c4ccc(COCc5ccc(C(F)(F)F)cc5)cc34)(C1)C2` [Compound 129, 3-cyano-N-(5-(((4-(trifluoromethyl)benzyl)oxy)methyl)-1H-indol-3-yl)bicyclo[1.1.1]pentane-1-carboxamide], the pEC50 is 6.00 to 6.70.

With `O=C(Nc1c[nH]c2ccc(COCc3ccc(C(F)(F)F)cc3)cc12)C12CC(c3ccccc3)(C1)C2` [Compound 130, 3-phenyl-N-(5-(((4-(trifluoromethyl)benzyl)oxy)methyl)-1H-indol-3-yl)bicyclo[1.1.1]pentane-1-carboxamide], the pEC50 was 6.70 to 7.40.

As to `O=C(Nc1c[nH]c2ccc(OCCc3ccc(C(F)(F)F)cc3)cc12)C12CC(C1)C2` [Compound 131, N-(5-(4-(trifluoromethyl)phenethoxy)-1H-indol-3-yl)bicyclo[1.1.1]pentane-1-carboxamide], the pEC50 is 6.00 to 6.70.

Take `O=C(Nc1c[nH]c2ccc(O[C@H]3C[C@@H](c4ccc(C(F)(F)F)cc4)C3)cc12)C12CC(F)(C1)C2` [Compound 132, 3-fluoro-N-(5-((1s,3s)-3-(4-(trifluoromethyl)phenyl)cyclobutoxy)-1H-indol-3-yl)bicyclo[1.1.1]pentane-1-carboxamide]: the pEC50 is 6.00 to 6.70.

As to `O=C(Nc1c[nH]c2ccc(O[C@H]3C[C@H](c4ccc(C(F)(F)F)cc4)C3)cc12)C12CC(F)(C1)C2` [Compound 133, 3-fluoro-N-(5-((1r,3r)-3-(4-(trifluoromethyl)phenyl)cyclobutoxy)-1H-indol-3-yl)bicyclo[1.1.1]pentane-1-carboxamide], the pEC50 is 6.70 to 7.40.
